This is an account of results in PMC8046226, “Koala cathelicidin PhciCath5 has antimicrobial activity, including against Chlamydia pecorum” (PLoS ONE, 2021).

For orientation: MIC means the smallest concentration in the dilution series that meets the test's criterion for growth inhibition.

The test system of one test is E. coli ATCC25922. In kind it is cell-based. On the procedure:
(§1) Antimicrobial activity was determined against a range of bacteria and fungi from humans and animals using a broth microdilution susceptibility assay according to clinical laboratory standards institute (CLSI) guidelines in 96 well polypropylene plates as described previously. Briefly, cathelicidins were dissolved in DMSO and serially diluted, in cation-adjusted Mueller Hinton Broth (MH II B) with or without 10% lysed horse blood for bacteria, and yeast nitrogen base (YNB) for fungi. Cathelicidin concentrations ranged between 64μg/mL and 0.125μg/mL in a final volume of 100μL. For all bacteria and fungi tested, ampicillin, tetracycline and fluconazole were included as positive controls, in addition to a media-only control and growth control (no inhibitor). Bacteria and fungi were sub-cultured 20–24 hours prior to the test, suspended in saline and their concentration adjusted to a 0.5 McFarland standard. Microorganisms were then diluted to a concentration of 0.5–1.0x10^6 cells/mL, with colony counts performed to confirm microorganism density, and 100μL was dispensed into the wells of the cathelicidin dilution plate. All plates were incubated at 35°C for 20–48 hours depending on the strain. Antimicrobial activity was expressed as minimum inhibitory concentration (MIC), which was defined as the lowest concentration of cathelicidin preventing visible bacterial growth, relative to the no-drug control. The same microdilution susceptibility assay was performed using Mueller Hinton Broth without the addition of the divalent cations calcium and magnesium (MHB), to test the effect of the cations on PhciCath5 activity against the ATCC strains E. coli 25922 and S. aureus 29213.

The subject of a further test is P. aeruginosa ATCC27853. In kind it is cell-based. On the procedure:
as §1

Another test deals with S. agalactiae ATCC12386. In kind it is cell-based. On the procedure: as §1
A further test concerns S. aureus ATCC29213. In kind it is cell-based. On the procedure:
as §1

The test system of the next test is S. dysgalactiae. In kind it is cell-based. On the procedure: as §1
The next test concerns S. lutetiensis. In kind it is cell-based. On the procedure: as §1
In a further test the test system is S. mutans. In kind it is cell-based. On the procedure: as §1
The test system of a further test is S. oralis. In kind it is cell-based. On the procedure: as §1
Another test relates to S. pneumoniae ATCC49619. In kind it is cell-based. On the procedure:
as §1

The test system of another test is S. pyogenes ATCC19615. In kind it is cell-based. On the procedure: as §1
A further test deals with S. salivarius. In kind it is cell-based. On the procedure:
as §1

The subject of the next test is MRSA (animal isolate). In kind it is cell-based, Staphylococcus aureus. As to conditions: broth microdilution (CLSI), MH II B with magnesium and calcium cations, 35°C, 20–48 hours. On the procedure: as §1, with “All plates were incubated at 35°C for 20–48 hours depending on the strain.” left out, “The same microdilution susceptibility assay was performed using Mueller Hinton Broth without the addition of the divalent cations calcium and magnesium (MHB), to test the effect of the cations on PhciCath5 activity against the ATCC strains E. coli 25922 and S. aureus 29213.” left out

The test system of a further test is C. albicans. Nature of the test: Broth microdilution susceptibility assay (MIC). In kind it is cell-based. As to conditions: broth microdilution (CLSI), yeast nitrogen base (YNB) for fungi, 35°C, 20–48 hours. On the procedure: as §1
A general note: Dilution methods test growth across graded concentrations, often in twofold steps.

Another test concerns C. glabrata. Nature of the test: Broth microdilution susceptibility assay (MIC). As to conditions: broth microdilution (CLSI), yeast nitrogen base (YNB) for fungi, 35°C, 20–48 hours. In kind it is cell-based. On the procedure:
as §1

Another test relates to E. coli (animal isolate). Nature of the test: Broth microdilution susceptibility assay (MIC). As to conditions: broth microdilution (CLSI), MH II B with magnesium and calcium cations, 35°C, 20–48 hours. In kind it is cell-based. On the procedure: as §1
Test [1] concerns K. pneumoniae (animal isolate). Nature of the test: Broth microdilution susceptibility assay (MIC). The note with it: broth microdilution (CLSI), MH II B with magnesium and calcium cations, 35°C, 20–48 hours. In kind it is cell-based. On the procedure:
as §1

For test [2], the system named is L. monocytogenes (animal isolate). Nature of the test: Broth microdilution susceptibility assay (MIC). The note with it: broth microdilution (CLSI), MH II B with magnesium and calcium cations, 35°C, 20–48 hours. In kind it is cell-based. On the procedure: as §1
Test [3] concerns P. aeruginosa (animal isolate). Nature of the test: Broth microdilution susceptibility assay (MIC). In kind it is cell-based. As to conditions: broth microdilution (CLSI), MH II B with magnesium and calcium cations, 35°C, 20–48 hours. On the procedure: as §1
Test [4] has as its system P. multocida (animal isolate). Nature of the test: Broth microdilution susceptibility assay (MIC). In kind it is cell-based. As to conditions: broth microdilution (CLSI), MH II B with magnesium and calcium cations, 35°C, 20–48 hours. On the procedure:
as §1

Test [5] relates to S. agalactiae (animal isolate). Nature of the test: Broth microdilution susceptibility assay (MIC). In kind it is cell-based. The note with it: broth microdilution (CLSI), MH II B with magnesium and calcium cations, 35°C, 20–48 hours. On the procedure:
as §1

Test [6] relates to S. aureus (animal isolate). The test can be described thus: Broth microdilution susceptibility assay (MIC). In kind it is cell-based. As to conditions: broth microdilution (CLSI), MH II B with magnesium and calcium cations, 35°C, 20–48 hours. On the procedure:
as §1

The subject of a further test is S. equi (animal isolate). Nature of the test: Broth microdilution susceptibility assay (MIC). In kind it is cell-based. As to conditions: broth microdilution (CLSI), MH II B with magnesium and calcium cations, 35°C, 20–48 hours. On the procedure:
as §1

Test [7] concerns C. parapsilosis ATCC 22019. The test can be described thus: Broth microdilution susceptibility assay (MIC). In kind it is cell-based, Candida parapsilosis. The note with it: broth microdilution (CLSI), yeast nitrogen base (YNB) for fungi, 35°C, 20–48 hours. On the procedure: as §1, with “All plates were incubated at 35°C for 20–48 hours depending on the strain.” left out, “The same microdilution susceptibility assay was performed using Mueller Hinton Broth without the addition of the divalent cations calcium and magnesium (MHB), to test the effect of the cations on PhciCath5 activity against the ATCC strains E. coli 25922 and S. aureus 29213.” left out

A further test relates to C. krusei ATCC 6258. Nature of the test: Broth microdilution susceptibility assay (MIC). In kind it is cell-based, Candida krusei. As to conditions: broth microdilution (CLSI), yeast nitrogen base (YNB) for fungi, 35°C, 20–48 hours. On the procedure: as §1, with “All plates were incubated at 35°C for 20–48 hours depending on the strain.” left out, “The same microdilution susceptibility assay was performed using Mueller Hinton Broth without the addition of the divalent cations calcium and magnesium (MHB), to test the effect of the cations on PhciCath5 activity against the ATCC strains E. coli 25922 and S. aureus 29213.” left out

The subject of another test is C. trachomatis. As to conditions: cited from earlier work. The source says: Koala cathelicidin PhciCath5 inactivated C. pecorum MarsBar and IPTaLE elementary bodies (EB) and was the only peptide tested that caused biologically and statistically significant reductions in chlamydial inclusions. […] Timing of cathelicidin release from immune and epithelial cells within the host may not enable direct interaction with EB. […] Indeed, proteases secreted by this C. trachomatis neutralise LL-37 anti-chlamydial activity, thereby evading AMP attack and ensuring extracellular EB survival. ...

The subject of another test is C. pecorum IPTaLE. The test can be described thus: Chlamydia pecorum antimicrobial susceptibility (elementary body inactivation, IFU/mL). In kind it is cell-based. As to conditions: 125, 250 and 500μg/mL; less than half an order of magnitude difference in chlamydial inclusions compared with the control. On the procedure: (§2) C. pecorum IPTaLE and MarsBar were cultured in mouse McCoy B cells, on DMEM supplemented with 10% foetal calf serum (FCS), 0.1mg/mL streptomycin and 0.05mg/mL gentamicin at 37°C in a 5% CO2 atmosphere. Cell lines were routinely tested for mycoplasma contamination every 2 months. Prior to performing antimicrobial susceptibility assays, 96-well plates were seeded with 30,000 host cells per well 24 hours prior to chlamydial infection as described previously. For the antimicrobial assays, koala cathelicidin mature peptides, PhciCath1, 2, 3, 5 and 6, were solubilized in water for cell culture with 0.01% acetic acid, and two-fold dilutions were made in sucrose-phosphate-glutamic acid (SPG) media from 1mg to 250μg/mL, in triplicate. Cathelicidin containing wells were diluted one in two with C. pecorum IPTaLE and MarsBar EBs and incubated for 2 hours at 37°C, giving a final cathelicidin concentration of 500, 250 and 125μg/mL. A negative SPG only control was included. To exclude the possibility of cathelicidin toxicity to McCoy cells, cathelicidin dilutions were removed by centrifugation and C. pecorum EBs re-suspended in DMEM supplemented with 10% FCS, 0.1mg/mL streptomycin and 0.05mg/mL gentamycin. The suspension was used to infect a McCoy B ATCC CRL-1696 cell monolayer at a Multiplicity of Infection (MOI) of 0.6 as described previously. […]

The subject of a further test is C. pecorum MarsBar. Described as above. In kind it is cell-based. The note with it: 125, 250 and 500μg/mL; less than half an order of magnitude difference in chlamydial inclusions compared with the control. On the procedure:
as §2

Converted amounts (≈) assume the structure as drawn. Where two headings read alike, the source gives them in different places. Residues, ends and D or L forms follow the SMILES beside them. No end group written: not given here.

For `CC[C@H](C)[C@H](NC(=O)CNC(=O)CNC(=O)[C@H](CCCNC(=N)N)NC(=O)[C@@H](N)CCCCN)C(=O)N[C@@H](Cc1c[nH]c2ccccc12)C(=O)N[C@@H](CCCCN)C(=O)N[C@@H](CC(C)C)C(=O)N[C@H](C(=O)N[C@@H](CCCNC(=N)N)C(=O)N1CCC[C@H]1C(=O)N[C@@H](CC(C)C)C(=O)NCC(=O)N[C@@H](CCCNC(=N)N)C(=O)NCC(=O)N[C@@H](C)C(=O)NCC(=O)N[C@@H](CCCNC(=N)N)C(=O)N[C@H](C(=O)N[C@@H](CC(C)C)C(=O)N[C@@H](CCCNC(=N)N)C(=O)N[C@@H](Cc1c[nH]cn1)C(=O)N[C@@H](Cc1ccccc1)C(=O)N[C@@H](Cc1c[nH]cn1)C(=O)N[C@H](C(=O)N[C@@H](CC(=O)O)C(=O)N[C@@H](Cc1ccccc1)C(=O)N[C@@H](CS)C(=O)NCC(=O)N[C@@H](CC(N)=O)C(=O)N[C@@H](CS)C(=O)O)[C@@H](C)CC)[C@@H](C)CC)[C@@H](C)CC` [PhciCath5] (H-KRGGIWKLIRPLGRGAGRILRHFHIDFCGNC-OH), the minimum inhibitory concentration (MIC) against E. coli ATCC25922 is 64 µg/mL (≈ 18 µM); in the test on P. aeruginosa ATCC27853 it was >64 µg/mL; with S. agalactiae ATCC12386 it was 64 µg/mL (≈ 18 µM); in the test on S. aureus ATCC29213, 16 µg/mL (≈ 4.51 µM); in the test with S. dysgalactiae it was >64 µg/mL; in the test on S. lutetiensis, >64 µg/mL. The MIC with S. mutans is >64 µg/mL; against S. oralis, >64 µg/mL; in the test with S. pneumoniae ATCC49619, >64 µg/mL; against S. pyogenes ATCC19615 it was 64 µg/mL (≈ 18 µM); against S. salivarius, 64 µg/mL (≈ 18 µM); with MRSA (animal isolate), 16 µg/mL (≈ 4.51 µM). For the same compound, the MIC was >64 µg/mL against C. albicans; >64 µg/mL with C. glabrata; 16 µg/mL (≈ 4.51 µM) in the test with E. coli (animal isolate); >64 µg/mL in [1]; 64 µg/mL (≈ 18 µM) in test [2]; >64 µg/mL in test [3]. Moreover, the minimum inhibitory concentration (MIC) in [4] was >64 µg/mL; in test [5], 64 µg/mL (≈ 18 µM); in [6], 8 µg/mL (≈ 2.25 µM); with S. equi (animal isolate) it was >64 µg/mL; in [7], 32 µg/mL (≈ 9.02 µM); in the test on C. krusei ATCC 6258 it was 64 µg/mL (≈ 18 µM). Moreover, the “MIC (in brackets)” value against E. coli ATCC25922 and in the test with S. aureus ATCC29213 was 11 µg/mL (≈ 3.1 µM) each time.

“PG-1: pig protegrin PG-1, a eutherian cathelicidin (RGGRLCYCRRRFCVCVGR; ends and bridges not checked; cysteine pairing not given here; UniProt P32194 131-148, looked up)”: the “concentration which reduced the infectivity of C. trachomatis” value with C. trachomatis (single round of infection) is 1.25 µg/mL. In addition, the reduction in infectivity is ~100% with C. trachomatis (treatment of extracellular EBs) and 67% in the test with C. trachomatis (treatment of intracellular C. trachomatis).

`CC[C@H](C)[C@H](NC(=O)[C@H](CCCNC(=N)N)NC(=O)[C@H](CCCCN)NC(=O)[C@H](Cc1ccccc1)NC(=O)[C@H](CCCNC(=N)N)NC(=O)[C@H](CC(C)C)NC(=O)[C@@H]1CCCN1C(=O)[C@H](CCC(=O)O)NC(=O)[C@@H]1CCCN1C(=O)[C@@H]1CCCN1)C(=O)N[C@@H](CCCNC(=N)N)C(=O)N[C@@H](CS)C(=O)N[C@@H](CC(C)C)C(=O)N[C@@H](CC(N)=O)C(=O)NCC(=O)N[C@@H](CCCNC(=N)N)C(=O)N[C@@H](CCCCN)C(=O)N[C@@H](CS)C(=O)N[C@@H](CC(N)=O)C(=O)N[C@@H](Cc1ccc(O)cc1)C(=O)N[C@@H](Cc1c[nH]cn1)C(=O)N[C@@H](CC(N)=O)C(=O)N[C@@H](CC(C)C)C(=O)N[C@@H](CC(C)C)C(=O)N[C@@H](CC(C)C)C(=O)N[C@H](C(=O)N[C@H](C(=O)N[C@H](C(=O)N1CCC[C@H]1C(=O)N[C@@H](Cc1c[nH]cn1)C(=O)N[C@@H](Cc1c[nH]c2ccccc12)C(=O)N[C@@H](CCCNC(=N)N)C(=O)N[C@H](C(=O)N1CCC[C@H]1C(=O)N[C@@H](CCCCN)C(=O)NCC(=O)N[C@@H](CCCCN)C(=O)O)[C@@H](C)CC)C(C)C)[C@@H](C)CC)[C@@H](C)O` [PhciCath3] (H-PPEPLRFKRIRCLNGRKCNYHNLLLTIVPHWRIPKGK-OH): the “activity against C. pecorum IPTaLE up to 500ug/mL” value with C. pecorum IPTaLE was “ineffective”. Besides, in the test with C. pecorum MarsBar, the “activity against C. pecorum MarsBar up to 500ug/mL” value was “ineffective”.
